# Measurements: ChEMBL document CHEMBL1201862, “PubChem BioAssay data set” (2004)
#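 Exposure lasted 48 hours, with cells grown in 96-well plates and compounds tested at five concentrations. GI50: concentration for 50% inhibition of growth.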 Active and inactive are the calls of the source. No stated cut-off is given here; in the data, active = GI50 up to about 1.1 µM and inactive = higher.
# What was measured:
# Assay in all cases: NCI-60 cell line screen, 48 h
# NCI-H23 = system: NCI-H23
# HOP-92 = system: HOP-92
# K562 = system: K562
# KM12 = system: KM12
# SK-MEL-28 = system: SK-MEL-28
# UO-31 = system: UO-31
# CAKI-1 = system: CAKI-1
# RPMI-8226 = system: RPMI-8226
# U-251 = system: U-251
# EKVX = system: EKVX
# SK-OV-3 = system: SK-OV-3
# NCI-H460 = system: NCI-H460
# SW-620 = system: SW-620
# OVCAR-8 = system: OVCAR-8
# UACC-257 = system: UACC-257
# Hs-578T = system: Hs-578T
# MDA-MB-231 = system: MDA-MB-231
# PC-3 = system: PC-3
# MDA-MB-435 = system: MDA-MB-435
# T47D = system: T47D
Structure (SMILES),GI50 (NCI-H23),GI50 (HOP-92),GI50 (K562),GI50 (KM12),GI50 (SK-MEL-28),GI50 (UO-31),GI50 (CAKI-1),GI50 (RPMI-8226),GI50 (U-251),GI50 (EKVX),GI50 (SK-OV-3),GI50 (NCI-H460),GI50 (SW-620),GI50 (OVCAR-8),GI50 (UACC-257),GI50 (Hs-578T),GI50 (MDA-MB-231),GI50 (PC-3),GI50 (MDA-MB-435),GI50 (T47D)
COc1ccc(C(=O)CC(=O)C(=O)Nc2ccc(C)c(C)c2)cc1,> 100 µM (inactive),> 51.3 µM (inactive),53.6 µM (inactive),> 100 µM (inactive),> 100 µM (inactive),98.6 µM (inactive),> 100 µM (inactive),> 47.5 µM (inactive),63.4 µM (inactive),> 100 µM (inactive),> 100 µM (inactive),> 41.3 µM (inactive),28.4 µM (inactive),> 100 µM (inactive),> 100 µM (inactive),–,–,–,–,–
CN(CC(=O)O)Cc1c[nH]c2ccccc12,> 100 µM (inactive),> 100 µM (inactive),> 100 µM (inactive),> 100 µM (inactive),> 100 µM (inactive),> 100 µM (inactive),> 100 µM (inactive),> 100 µM (inactive),> 100 µM (inactive),> 100 µM (inactive),> 100 µM (inactive),> 100 µM (inactive),> 100 µM (inactive),> 100 µM (inactive),> 100 µM (inactive),> 100 µM (inactive),> 100 µM (inactive),> 100 µM (inactive),> 100 µM (inactive),–
CSC1=C(C(=O)Nc2ccc(C)cc2)C(N)=NC1=O,> 100 µM (inactive),> 100 µM (inactive),> 100 µM (inactive),> 100 µM (inactive),> 100 µM (inactive),> 100 µM (inactive),> 100 µM (inactive),> 100 µM (inactive),> 100 µM (inactive),> 100 µM (inactive),> 100 µM (inactive),> 100 µM (inactive),> 100 µM (inactive),> 100 µM (inactive),> 100 µM (inactive),> 100 µM (inactive),> 100 µM (inactive),–,> 100 µM (inactive),> 100 µM (inactive)
O=c1c(Nc2ccccc2)cn(CCOc2ccccc2)c(=O)n1CCOc1ccccc1,33.4 µM (inactive),35.6 µM (inactive),> 100 µM (inactive),> 100 µM (inactive),> 100 µM (inactive),44.4 µM (inactive),81.7 µM (inactive),> 100 µM (inactive),> 100 µM (inactive),33.1 µM (inactive),–,> 100 µM (inactive),> 100 µM (inactive),–,83.2 µM (inactive),17.6 µM (inactive),–,34.8 µM (inactive),> 100 µM (inactive),–
COc1ccc(-c2c(C3=NCCCN3)nnn2-c2ccc([N+](=O)[O-])cc2)cc1,> 100 µM (inactive),> 100 µM (inactive),> 100 µM (inactive),> 100 µM (inactive),> 100 µM (inactive),> 100 µM (inactive),> 100 µM (inactive),> 100 µM (inactive),> 100 µM (inactive),> 100 µM (inactive),34.8 µM (inactive),> 100 µM (inactive),> 100 µM (inactive),> 100 µM (inactive),> 100 µM (inactive),–,–,–,–,–
O=c1c2cc(S(=O)(=O)Nc3ccccc3Cl)ccc2ncn1NS(=O)(=O)c1ccc(Br)cc1,> 37.5 µM (inactive),> 37.5 µM (inactive),17.8 µM (inactive),> 37.5 µM (inactive),> 37.5 µM (inactive),> 37.5 µM (inactive),> 37.5 µM (inactive),> 37.5 µM (inactive),> 37.5 µM (inactive),> 37.5 µM (inactive),> 37.5 µM (inactive),> 37.5 µM (inactive),> 37.5 µM (inactive),> 37.5 µM (inactive),> 37.5 µM (inactive),> 37.5 µM (inactive),> 37.5 µM (inactive),> 37.5 µM (inactive),> 37.5 µM (inactive),–
CCCCCCC(=O)CC(=O)C(=O)Nc1ccccc1C,> 100 µM (inactive),> 100 µM (inactive),> 100 µM (inactive),> 100 µM (inactive),> 100 µM (inactive),> 100 µM (inactive),> 100 µM (inactive),> 100 µM (inactive),> 89.1 µM (inactive),> 100 µM (inactive),> 100 µM (inactive),> 51.1 µM (inactive),> 39.7 µM (inactive),> 100 µM (inactive),> 100 µM (inactive),–,–,–,–,–
CCOc1ccccc1/N=N/c1c(-c2ccccc2)nn(C(=O)CC(=O)Nc2cccc(C)c2)c1-c1ccccc1,> 100 µM (inactive),> 100 µM (inactive),62.7 µM (inactive),94 µM (inactive),> 100 µM (inactive),35.2 µM (inactive),> 100 µM (inactive),> 100 µM (inactive),> 100 µM (inactive),56.6 µM (inactive),> 100 µM (inactive),> 100 µM (inactive),> 100 µM (inactive),> 100 µM (inactive),> 100 µM (inactive),–,–,–,–,–
COc1ccc2c(c1)[n+]([O-])c(-c1ccccc1Cl)c(N)[n+]2[O-],37.2 µM (inactive),> 100 µM (inactive),99.1 µM (inactive),67.1 µM (inactive),> 100 µM (inactive),99.8 µM (inactive),> 100 µM (inactive),88.1 µM (inactive),69.2 µM (inactive),> 100 µM (inactive),> 100 µM (inactive),54.5 µM (inactive),61.7 µM (inactive),> 100 µM (inactive),36.6 µM (inactive),–,–,–,–,–
CC(C)(Oc1ccc(/C=C/C(=O)c2ccccc2)cc1)C(=O)Nc1c(Cl)cccc1Cl,7.33 µM (inactive),> 10 µM (inactive),17 µM (inactive),4.07 µM (inactive),> 10 µM (inactive),> 10 µM (inactive),> 10 µM (inactive),> 10 µM (inactive),7.14 µM (inactive),> 10 µM (inactive),> 10 µM (inactive),> 10 µM (inactive),7.08 µM (inactive),> 10 µM (inactive),> 10 µM (inactive),–,–,–,–,–
COC1/C=C/C(C)C(C(C)C(OC)C(C)CCC(=O)C(C)C(CC(=O)O)OC)OC(=O)/C=C/C=C(\C)CC(OC)C(OC)C2=CC(=O)O[C@@H](C(C)C(OC)CC(OC)/C=C/C(C)C(O)C1)[C@H]2O (some centres undefined),0.164 µM (active),0.0339 µM (active),0.0564 µM (active),0.0512 µM (active),0.0212 µM (active),0.0382 µM (active),0.033 µM (active),0.0959 µM (active),0.0416 µM (active),0.0474 µM (active),0.0879 µM (active),0.0311 µM (active),0.0242 µM (active),0.0337 µM (active),0.0993 µM (active),–,0.083 µM (active),0.0382 µM (active),0.0681 µM (active),0.135 µM (active)
O=[N+]([O-])c1ccc(-n2nnc(C3=NCCN3)c2-c2ccc(Cl)cc2)cc1,> 100 µM (inactive),> 100 µM (inactive),83.8 µM (inactive),> 100 µM (inactive),> 100 µM (inactive),83.2 µM (inactive),> 100 µM (inactive),> 100 µM (inactive),> 100 µM (inactive),> 100 µM (inactive),> 100 µM (inactive),91.4 µM (inactive),> 100 µM (inactive),> 100 µM (inactive),> 100 µM (inactive),–,–,–,–,–
Cc1ccc(S(=O)(=O)Nn2c(C)cc3ccc(S(=O)(=O)Nc4ccccc4[N+](=O)[O-])cc3c2=O)cc1,> 100 µM (inactive),94.6 µM (inactive),3.85 µM (inactive),18.2 µM (inactive),> 100 µM (inactive),63.7 µM (inactive),> 100 µM (inactive),62.8 µM (inactive),> 100 µM (inactive),95.9 µM (inactive),> 100 µM (inactive),77.3 µM (inactive),> 100 µM (inactive),> 100 µM (inactive),> 100 µM (inactive),45.3 µM (inactive),> 100 µM (inactive),31.6 µM (inactive),> 100 µM (inactive),–
COC1(OC)C2(Cl)C3=CCCC=C3C1(Cl)C(Cl)=C2Cl,21.9 µM (inactive),21.5 µM (inactive),> 10 µM (inactive),34.3 µM (inactive),30.2 µM (inactive),21.7 µM (inactive),18.9 µM (inactive),12.1 µM (inactive),30.3 µM (inactive),16.1 µM (inactive),26 µM (inactive),26.5 µM (inactive),17.5 µM (inactive),32.2 µM (inactive),28.4 µM (inactive),–,–,–,–,–
O=S(=O)(O)c1ccc(/N=N/c2ccc(/N=N/c3c(O)ccc4cc(S(=O)(=O)O)ccc34)cc2)cc1,> 100 µM (inactive),> 100 µM (inactive),> 100 µM (inactive),> 100 µM (inactive),> 100 µM (inactive),53.3 µM (inactive),> 100 µM (inactive),> 100 µM (inactive),> 100 µM (inactive),> 100 µM (inactive),> 100 µM (inactive),> 100 µM (inactive),> 100 µM (inactive),> 100 µM (inactive),> 100 µM (inactive),> 100 µM (inactive),> 100 µM (inactive),> 100 µM (inactive),> 100 µM (inactive),–
CC(=O)Nc1ccc(S(=O)(=O)Nc2nnc(S(N)(=O)=O)s2)cc1,> 100 µM (inactive),> 100 µM (inactive),–,> 100 µM (inactive),–,> 100 µM (inactive),> 100 µM (inactive),> 100 µM (inactive),> 100 µM (inactive),> 100 µM (inactive),> 100 µM (inactive),> 100 µM (inactive),> 100 µM (inactive),–,–,–,> 100 µM (inactive),–,> 100 µM (inactive),> 100 µM (inactive)
